Reference: patent publication US10975101B2, “Ultra-potent vinca alkaloids: added molecular complexity further disrupts the tublin dimer-dimer interface” (priority 2016, dated 2021)
Read-outs that look alike come from different tables or passages of the source.

Tests used:
[1] = tested on: HCT116 (human colorectal carcinoma) cells; experiment: cells; format: cell-based; details: read-out: IC50, HCT116
Experimental: (§1) Compounds were tested for their cell growth inhibition of L1210 (ATCC no. CCL-219, mouse lymphocytic leukemia) cells, HCT116 (ATCC no. CCL-247, human colorectal carcinoma) cells, and HCT116/VM46 (a vinblastine-resistant strain of HCT116) cells in culture. A population of cells (>1×10^6 cells/mL as determined with a hemocytometer) was diluted with an appropriate amount of Dulbecco's Modified Eagle Medium (DMEM, Gibco) containing 10% fetal bovine serum (FBS, Gibco) to a final concentration of 30000 cells/mL.
(§2) To each well of a 96-well plate (Corning Costar), 100 μL of the cell media solution was added with a multichannel pipet. The cultures were incubated at 37° C. in an atmosphere of 5% CO2 and 95% humidified air for 24 hours. The test compounds were added to the plate as follows: test substances were diluted in DMSO to a concentration of 1 mM and 10-fold serial dilutions were performed on a separate 96-well plate. Fresh culture medium (100 μL) was added to each well of cells to constitute 200 μL of medium per well followed by 2 μL of each test agent. Compounds were tested in duplicate (n=2-18 times) at six concentrations between 0-1000 nM or 0-10000 nM. Following addition, cultures were incubated for an additional 72 hours.
(§3) A phosphatase assay was used to establish the IC50 values as follows: the media in each cell was removed and 100 μL of phosphatase solution (100 mg phosphatase substrate in 30 mL of 0.1 M NaOAc, pH 5.5, 0.1% Triton X-100 buffer) was added to each well. The plates were incubated at 37° C. for either 5 minutes (L1210) or 15 minutes (HCT116 and HCT116/VM46). After the given incubation time, 50 μL of 0.1 N NaOH was added to each well and the absorption at 405 nm was determined using a 96 well plate reader. As the absorption is directly proportional to the number of living cells, the IC50 values were calculated and the reported values represent of the average of 4-36 determinations (SD±10%).

[2] = tested on: HCT116/VM46 (a vinblastine-resistant strain of HCT116) cells; experiment: Cell growth inhibition assay, HCT116/VM46; format: cell-based, human; details: 72 hours incubation, phosphatase assay, Pgp-overexpressing resistant line
Experimental: as §1, §2, §3

[3] = tested on: L1210 (mouse lymphocytic leukemia) cells; experiment: Cell growth inhibition assay, L1210; format: cell-based; details: 72 hours incubation, phosphatase assay
Experimental: as §1, §2, §3

[4] = 72 hours incubation, phosphatase assay

Row | SMILES | IC50 [1, 4] | IC50 [2] | IC50 [3] | IC50 ([1]; Homo sapiens, HCT-116, 72 h) | IC50 ([2]; Homo sapiens, HCT-116/VM46) | IC50 ([3]; Mus musculus, L1210)
1 | CC[C@]1(NC(=O)N2Cc3ccc(N)cc3C2)C[C@H]2CN(CCc3c([nH]c4ccccc34)[C@@](C(=O)OC)(c3cc4c(cc3OC)N(C)[C@H]3[C@@](O)(C(=O)OC)[C@H](OC(C)=O)[C@]5(CC)C=CCN6CC[C@]43[C@@H]65)C2)C1 [Compound 36] | 0.42 nM | 6.8 nM | 0.47 nM | – | – | –
2 | CC[C@]1(NC(=O)N2Cc3ccc(NC(=O)c4ccc(C(C)C)cc4)cc3C2)C[C@H]2CN(CCc3c([nH]c4ccccc34)[C@@](C(=O)OC)(c3cc4c(cc3OC)N(C)[C@H]3[C@@](O)(C(=O)OC)[C@H](OC(C)=O)[C@]5(CC)C=CCN6CC[C@]43[C@@H]65)C2)C1 [Compound 53] | 4.2 nM | 60 nM | 2.9 nM | – | – | –
3 | CCC1(NC(=O)N2Cc3cc(OC)c(OC)cc3C2)C[C@H]2CN(CCc3c([nH]c4ccccc34)[C@@](C(=O)OC)(c3cc4c(cc3OC)N(C)[C@H]3C(O)(C(=O)OC)[C@H](OC(C)=O)[C@]5(CC)C=CCN6CC[C@]43[C@@H]65)C2)C1 (stereo partly drawn) [Compound 54] | – | – | – | 0.45 nM | 5.2 nM | 0.42 nM
4 | CC[C@]1(NC(=O)N2Cc3ccc(N(C)C)cc3C2)C[C@H]2CN(CCc3c([nH]c4ccccc34)[C@@](C(=O)OC)(c3cc4c(cc3OC)N(C)[C@H]3[C@@](O)(C(=O)OC)[C@H](OC(C)=O)[C@]5(CC)C=CCN6CC[C@]43[C@@H]65)C2)C1 [Compound 38] | 0.62 nM | 3.9 nM | 0.5 nM | – | – | –
5 | CC[C@]1(NC(=O)N2CCC(C#N)C2)C[C@H]2CN(CCc3c([nH]c4ccccc34)[C@@](C(=O)OC)(c3cc4c(cc3OC)N(C)[C@H]3[C@@](O)(C(=O)OC)[C@H](OC(C)=O)[C@]5(CC)C=CCN6CC[C@]43[C@@H]65)C2)C1 (single isomer, unassigned) [Compound 21] | 1.8 nM | 60 nM | 5.1 nM | – | – | –
6 | CCC1(NC(=O)N2CCC(OC)C2)CC2CN(CCc3c([nH]c4ccccc34)C(C(=O)OC)(c3cc4c(cc3OC)N(C)C3C(O)(C(=O)OC)C(OC(C)=O)C5(CC)C=CCN6CCC43C65)C2)C1 (mixture of isomers) [Compound 16] | 1 nM | 25 nM | 3.3 nM | – | – | –
7 | CC[C@]1(NC(=O)N2Cc3ccc(Br)cc3C2)C[C@H]2CN(CCc3c([nH]c4ccccc34)[C@@](C(=O)OC)(c3cc4c(cc3OC)N(C)[C@H]3[C@@](O)(C(=O)OC)[C@H](OC(C)=O)[C@]5(CC)C=CCN6CC[C@]43[C@@H]65)C2)C1 [Compound 33] | 0.56 nM | 6.4 nM | 0.62 nM | – | – | –
8 | CC[C@]1(NC(=O)N2Cc3ccc(NC(=O)c4ccc(OC(F)(F)F)cc4)cc3C2)C[C@H]2CN(CCc3c([nH]c4ccccc34)[C@@](C(=O)OC)(c3cc4c(cc3OC)N(C)[C@H]3[C@@](O)(C(=O)OC)[C@H](OC(C)=O)[C@]5(CC)C=CCN6CC[C@]43[C@@H]65)C2)C1 [Compound 52] | 5.3 nM | 75 nM | 4.3 nM | – | – | –
9 | CC[C@]1(NC(=O)N2Cc3ccc(NC)cc3C2)C[C@H]2CN(CCc3c([nH]c4ccccc34)[C@@](C(=O)OC)(c3cc4c(cc3OC)N(C)[C@H]3[C@@](O)(C(=O)OC)[C@H](OC(C)=O)[C@]5(CC)C=CCN6CC[C@]43[C@@H]65)C2)C1 [Compound 37] | 0.43 nM | 4.6 nM | 0.45 nM | – | – | –
10 | C=CC(=O)Nc1ccc2c(c1)CN(C(=O)N[C@@]1(CC)C[C@H]3CN(CCc4c([nH]c5ccccc45)[C@@](C(=O)OC)(c4cc5c(cc4OC)N(C)[C@H]4[C@@](O)(C(=O)OC)[C@H](OC(C)=O)[C@]6(CC)C=CCN7CC[C@]54[C@@H]76)C3)C1)C2 [Compound 46] | 0.3 nM | 7.1 nM | 0.38 nM | – | – | –
11 | CC[C@]1(NC(=O)N2Cc3ccc(NC(=O)c4ccnnc4)cc3C2)C[C@H]2CN(CCc3c([nH]c4ccccc34)[C@@](C(=O)OC)(c3cc4c(cc3OC)N(C)[C@H]3[C@@](O)(C(=O)OC)[C@H](OC(C)=O)[C@]5(CC)C=CCN6CC[C@]43[C@@H]65)C2)C1 [Compound 62] | 0.64 nM | 50 nM | 0.69 nM | – | – | –
